This is an account of results in patent US9808450B2, “Solid forms comprising 3-(4-amino-1-OXO-1,3-dihydro-isoindol-2-yl)-piperidine-2,6-dione and a coformer, compositions and methods of use thereof” (CELGENE CORPORATION, priority 2013, dated 2017).

Converted amounts (≈) assume the structure as drawn.

One series concerns cyclooxygenase-2 (COX-2). As to conditions: in vitro; cited from earlier work.
Series [1] deals with hematopoietic tumor models, including multiple myeloma. Conditions: some in vivo nonclinical hematopoietic tumor models; cited from earlier work.
The subject of the next series is COX-1. Conditions: in vitro; cited from earlier work.
Series [2] concerns cells derived from patients with multiple myeloma and del (5q) myelodysplastic syndromes. As to conditions: cells from patients with multiple myeloma and del (5q) MDS; cited from earlier work.
Series [3] relates to tumor necrosis factor alpha (TNF-α). Conditions: peripheral blood mononuclear cells; cited from earlier work.
Series [4] can be described thus: Estimated solubility of lenalidomide in solvents at ambient temperature (aliquot addition, visual inspection). As to conditions: organic solvent or mixture, thermodynamic from solid. It is filed as physicochemical. As for the experimental part: Solubility was estimated by treating a weighed sample of lenalidomide with measured aliquots of the test solvent at ambient temperature, with shaking and/or sonication between aliquots. Dissolution was determined by visual inspection. Solubility numbers were calculated by dividing the total amount of solvent used to dissolve the sample by the weight of the sample. The actual solubilities may be greater than the numbers calculated because of the use of solvent aliquots that were too large or because of slow dissolution rates. […] The solubility number is expressed as “greater than” if dissolution occurred on addition of the first solvent aliquot.

The solubility is the concentration that dissolves in the medium under given conditions. Consider `Nc1cccc2c1CN(C1CCC(=O)NC1=O)C2=O` (stereo not drawn) [Lenalidomide, 3-(4-amino-1-oxo-1,3-dihydro-isoindol-2-yl)-piperidine-2,6-dione], for which the “Expression of COX-2” value with cyclooxygenase-2 (COX-2) is given as “inhibited the expression”. For the same molecule, in series [1], the Tumor growth entry is recorded as “delay in tumor growth”. Further, the “Expression of COX-1” value in the series on COX-1 is “not”. Besides, the “Growth of cells in vitro” value in series [2] is recorded as “inhibits the growth”. The “Secretion of TNF-α” value in series [3] is “inhibits the secretion”. Besides, the solubility is 2200 µg/mL (≈ 8.49 mM) in series [4] (acetone), 3400 µg/mL (≈ 13.1 mM) in series [4] (acetonitrile), 2600 µg/mL (≈ 10 mM) in series [4] (methanol) and 3000 µg/mL (≈ 11.6 mM) in series [4] (tetrahydrofuran).
